Results reported in patent US20240109903A1, “SUBSTITUTED HETEROCYCLES FOR TREATING CANCER” (Northwestern University, priority 2022, published 2024).
Like-named read-outs stand apart in the source and are kept apart here.

Legend:
[1] = test system: MV-4-11 acute myeloid leukemia cells; experiment: CellTiter-Glo 2.0 cell viability, MV-4-11; format: cell-based; settings: Homo sapiens
Description: 2019 October; 94(4): 1813-1823.
Cell viability was assessed using the CellTiter-Glo 2.0 assay from Promega, which yields a signal proportional to the amount of ATP present in a cell population. Compounds were first dispensed into empty 96-well flat-bottom tissue culture-treated plates (Corning) using an Echo550. MV4-1 cells were diluted to a density of 0.1 million cells per ml, pipetted onto the compounds at a density of 1,000 cells per well for U937 and 3,000 cells per well for MV4-11, mixed, and incubated for 3 days at 37° C. with 5% C02. After incubating, 5 μl of cells from each well were added to 5 μl of CellTiter-Glo 2.0 reagent in a384-well white ProxiPlate (PerkinElmer), incubated for 20 minutes at ambient temperature, and luminescence was analyzed on an EnSpire plate reader. Graphing and regression analysis was performed in Graphpad Prism.

[2] = test system: full NCI 60 cell panel; experiment: NCI 60 Cell One-dose screen; format: cell-based, human; settings: single high dose 10^−5 M, NCI 60 panel
Excerpt: Compounds were submitted to the NCI 60 Cell screen and tested at a single high dose (10^−5 M) in the full NCI 60 cell panel (see the following reference for details of using NCI 60 human tumor cell lines for screening anticancer drugs: Shoemaker R H. The NCI60 human tumor cell line anticancer drug screen. Nature Rev Cancer 2006; 6: 813-23). The One-dose data is reported as a mean graph of the percent growth of treated cells. The number reported for the One-dose assay is growth relative to the no-drug control, and relative to the time zero number of cells. This allows detection of both growth inhibition (values between 0 and 100) and lethality (values less than 0). For example, a value of 100 means no growth inhibition. A value of 40 would mean 60% growth inhibition. A value of 0 means no net growth over the course of the experiment. A value of −40 would mean 40% lethality. A value of −100 means all cells are dead. FIGS. 1-8 show the mean graph of percent growth against the NCI-60 cell panel for NUCC-0226674, NUCC-0226679, NUCC-0226680, NUCC-0226683, NUCC-0226689, NUCC-0226694, NUCC-0226695, and NUCC-0226698.

[3] = test system: EKVX; experiment: NCI 60 five-dose screen EKVX; format: cell-based; settings: Homo sapiens, five-dose
[4] = test system: HCT-116; experiment: NCI 60 five-dose screen HCT-116; format: cell-based; settings: Homo sapiens, five-dose
[5] = test system: HT29; experiment: NCI 60 five-dose screen HT29; format: cell-based; settings: Homo sapiens, HT-29, five-dose
[6] = test system: KM12; experiment: NCI 60 five-dose screen KM12; format: cell-based; settings: Homo sapiens, five-dose
[7] = test system: SF-268; experiment: NCI 60 five-dose screen SF-268; format: cell-based; settings: Homo sapiens, five-dose
[8] = test system: SF-295; experiment: NCI 60 five-dose screen SF-295; format: cell-based; settings: Homo sapiens, five-dose
[9] = test system: SNB-19; experiment: NCI 60 five-dose screen SNB-19; format: cell-based; settings: Homo sapiens, five-dose
[10] = test system: SNB-75; experiment: NCI 60 five-dose screen SNB-75; format: cell-based; settings: Homo sapiens, five-dose
[11] = test system: SK-MEL-2; experiment: NCI 60 five-dose screen SK-MEL-2; format: cell-based; settings: Homo sapiens, five-dose
[12] = test system: UACC-257; experiment: NCI 60 five-dose screen UACC-257; format: cell-based; settings: Homo sapiens, five-dose
[13] = test system: UACC-62; experiment: NCI 60 five-dose screen UACC-62; format: cell-based; settings: Homo sapiens, five-dose
[14] = test system: OVCAR-5; experiment: NCI 60 five-dose screen OVCAR-5; format: cell-based; settings: Homo sapiens, five-dose
[15] = test system: OVCAR-8; experiment: NCI 60 five-dose screen OVCAR-8; format: cell-based; settings: Homo sapiens, five-dose
[16] = test system: NCI/ADR-RES; experiment: NCI 60 five-dose screen NCI/ADR-RES; format: cell-based; settings: Homo sapiens, five-dose
[17] = test system: SK-OV-3; experiment: NCI 60 five-dose screen SK-OV-3; format: cell-based; settings: Homo sapiens, five-dose
[18] = test system: RXF 393; experiment: NCI 60 five-dose screen RXF 393; format: cell-based; settings: Homo sapiens, five-dose
[19] = test system: PC-3; experiment: NCI 60 five-dose screen PC-3; format: cell-based; settings: Homo sapiens, five-dose
[20] = test system: DU-145; experiment: NCI 60 five-dose screen DU-145; format: cell-based; settings: Homo sapiens, five-dose
[21] = read-out: LC50 (the source's name) (converted)

FC(F)(F)c1cc2c(Cl)ncnc2n1CCN1CCOCC1 [NUCC-0226680]
IC50 ([1]; MV4-11, 72 h, MV-4-11 cells, 3 days, CellTiter-Glo 2.0, read-out: IC50 (uM) [Cell Type: MV-4-11]): 0.679 µM
IC50 ([1]; MV4-11, bound stated in text, read-out: IC50 against MV-4-11 acute myeloid leukemia cells): < 2 µM
growth inhibition in the One-Dose Screen [2]: significant growth inhibition
GI50 [3]: 17 µM
IC50 [3]: 50.1 µM
IC (TGI) [3]: 95.5 µM
CC50 [3, 21]: ≥ 100 µM
GI50 [4]: 4.68 µM
IC50 [4]: 5.62 µM
IC (TGI) [4]: 100 µM
CC50 [4, 21]: ≥ 100 µM
GI50 [5]: 27.5 µM
IC50 [5]: 36.3 µM
IC (TGI) [5]: 100 µM
CC50 [5, 21]: ≥ 100 µM
GI50 [6]: 35.5 µM
IC50 [6]: 51.3 µM
IC (TGI) [6]: 100 µM
CC50 [6, 21]: ≥ 100 µM
GI50 [7]: 14.8 µM
IC50 [7]: 28.2 µM
IC (TGI) [7]: 33.9 µM
CC50 [7, 21]: 77.6 µM
GI50 [8]: 24.5 µM
IC50 [8]: 45.7 µM
IC (TGI) [8]: 100 µM
CC50 [8, 21]: ≥ 100 µM
GI50 [9]: 15.5 µM
IC50 [9]: 28.8 µM
IC (TGI) [9]: 33.1 µM
CC50 [9, 21]: 70.8 µM
GI50 [10]: 10.2 µM
IC50 [10]: 23.4 µM
IC (TGI) [10]: 22.4 µM
CC50 [10, 21]: 49 µM
GI50 [11]: 17.4 µM
IC50 [11]: 33.9 µM
IC (TGI) [11]: 33.1 µM
CC50 [11, 21]: 64.6 µM
GI50 [12]: 10.5 µM
IC50 [12]: 23.4 µM
IC (TGI) [12]: 30.2 µM
CC50 [12, 21]: 87.1 µM
GI50 [13]: 10.7 µM
IC50 [13]: 20.9 µM
IC (TGI) [13]: 32.4 µM
CC50 [13, 21]: 97.7 µM
GI50 [14]: 100 µM
IC50 [14]: 100 µM
IC (TGI) [14]: 100 µM
CC50 [14, 21]: ≥ 100 µM
GI50 [15]: 8.51 µM
IC50 [15]: 13.8 µM
IC (TGI) [15]: 29.5 µM
CC50 [15, 21]: 93.3 µM
GI50 [16]: 30.2 µM
IC50 [16]: 57.5 µM
IC (TGI) [16]: 100 µM
CC50 [16, 21]: ≥ 100 µM
GI50 [17]: 100 µM
IC50 [17]: 100 µM
IC (TGI) [17]: 100 µM
CC50 [17, 21]: ≥ 100 µM
GI50 [18]: 14.8 µM
IC50 [18]: 42.7 µM
IC (TGI) [18]: 40.7 µM
CC50 [18, 21]: ≥ 100 µM
GI50 [19]: 11.2 µM
IC50 [19]: 19.1 µM
IC (TGI) [19]: 36.3 µM
CC50 [19, 21]: ≥ 100 µM
GI50 [20]: 28.8 µM
IC50 [20]: 50.1 µM
IC (TGI) [20]: 100 µM
CC50 [20, 21]: ≥ 100 µM
